Source: the NIST ThermoML archive (doi:10.1021/je700140j)
± gives the expanded uncertainty stated by the source.

Assay: refractive index (Na D-line) (dimensionless); xn = mol fraction of the nth substance listed
Details: 100.8 kPa, Liquid, Standard Abbe refractometry

OCCc1ccccc1 [2-phenylethanol] + CC(C)O
refractive index
Details | 298.15 K | 308.15 K | 318.15 K
x2 = 0 | 1.53269 ± 0.00037 | 1.52852 ± 0.00037 | 1.52427 ± 0.00037
x2 = 0.05 | 1.52795 ± 0.00037 | 1.52391 ± 0.00037 | 1.51972 ± 0.00037
x2 = 0.1 | 1.523 ± 0.00036 | 1.51896 ± 0.00036 | 1.51478 ± 0.00036
x2 = 0.15 | 1.5178 ± 0.00036 | 1.51375 ± 0.00036 | 1.50956 ± 0.00036
x2 = 0.2 | 1.51235 ± 0.00036 | 1.50826 ± 0.00036 | 1.50405 ± 0.00036
x2 = 0.25 | 1.50661 ± 0.00036 | 1.50253 ± 0.00036 | 1.49832 ± 0.00036
x2 = 0.3 | 1.50063 ± 0.00036 | 1.49652 ± 0.00036 | 1.49228 ± 0.00036
x2 = 0.35 | 1.49437 ± 0.00035 | 1.49025 ± 0.00035 | 1.48598 ± 0.00035
x2 = 0.4 | 1.4878 ± 0.00035 | 1.48365 ± 0.00035 | 1.47938 ± 0.00035
x2 = 0.45 | 1.48091 ± 0.00035 | 1.47673 ± 0.00035 | 1.47245 ± 0.00035
x2 = 0.5 | 1.47367 ± 0.00035 | 1.4695 ± 0.00035 | 1.46522 ± 0.00035
x2 = 0.55 | 1.46611 ± 0.00035 | 1.46193 ± 0.00035 | 1.45763 ± 0.00035
x2 = 0.6 | 1.45816 ± 0.00035 | 1.45395 ± 0.00035 | 1.44964 ± 0.00035
x2 = 0.65 | 1.44975 ± 0.00034 | 1.44553 ± 0.00034 | 1.4412 ± 0.00034
x2 = 0.7 | 1.44087 ± 0.00034 | 1.43664 ± 0.00034 | 1.4323 ± 0.00034
x2 = 0.75 | 1.43149 ± 0.00034 | 1.42725 ± 0.00034 | 1.4229 ± 0.00034
x2 = 0.8 | 1.42156 ± 0.00033 | 1.41733 ± 0.00033 | 1.41297 ± 0.00034
x2 = 0.85 | 1.411 ± 0.00033 | 1.40678 ± 0.00033 | 1.40239 ± 0.00033
x2 = 0.9 | 1.39973 ± 0.00033 | 1.39547 ± 0.00033 | 1.39112 ± 0.00033
x2 = 0.95 | 1.38776 ± 0.00033 | 1.38342 ± 0.00033 | 1.37903 ± 0.00033

OCc1ccccc1 [benzenemethanol] + CC(C)O
refractive index
Details | 298.15 K | 308.15 K | 318.15 K
x2 = 0 | 1.53843 ± 0.00033 | 1.53421 ± 0.00033 | 1.52994 ± 0.00033
x2 = 0.05 | 1.53277 ± 0.00033 | 1.52858 ± 0.00033 | 1.52435 ± 0.00033
x2 = 0.1 | 1.52684 ± 0.00033 | 1.52268 ± 0.00033 | 1.51849 ± 0.00033
x2 = 0.15 | 1.5207 ± 0.00033 | 1.51654 ± 0.00033 | 1.51233 ± 0.00033
x2 = 0.2 | 1.5143 ± 0.00033 | 1.51019 ± 0.00033 | 1.50598 ± 0.00033
x2 = 0.25 | 1.50772 ± 0.00033 | 1.50359 ± 0.00033 | 1.49935 ± 0.00033
x2 = 0.3 | 1.50089 ± 0.00033 | 1.49674 ± 0.00033 | 1.4925 ± 0.00033
x2 = 0.35 | 1.49383 ± 0.00033 | 1.48966 ± 0.00033 | 1.48542 ± 0.00033
x2 = 0.4 | 1.48652 ± 0.00033 | 1.48234 ± 0.00033 | 1.47809 ± 0.00033
x2 = 0.45 | 1.47899 ± 0.00033 | 1.4748 ± 0.00033 | 1.47053 ± 0.00033
x2 = 0.5 | 1.47118 ± 0.00033 | 1.46698 ± 0.00034 | 1.46269 ± 0.00034
x2 = 0.55 | 1.4631 ± 0.00033 | 1.45889 ± 0.00033 | 1.45458 ± 0.00033
x2 = 0.6 | 1.45472 ± 0.00033 | 1.4505 ± 0.00033 | 1.44616 ± 0.00033
x2 = 0.65 | 1.44605 ± 0.00033 | 1.44182 ± 0.00033 | 1.43746 ± 0.00033
x2 = 0.7 | 1.43707 ± 0.00033 | 1.43283 ± 0.00033 | 1.42848 ± 0.00033
x2 = 0.75 | 1.42774 ± 0.00033 | 1.4235 ± 0.00033 | 1.41916 ± 0.00033
x2 = 0.8 | 1.41804 ± 0.00033 | 1.4138 ± 0.00033 | 1.40943 ± 0.00033
x2 = 0.85 | 1.40795 ± 0.00033 | 1.40368 ± 0.00033 | 1.39933 ± 0.00033
x2 = 0.9 | 1.39746 ± 0.00033 | 1.39319 ± 0.00033 | 1.38883 ± 0.00033
x2 = 0.95 | 1.38648 ± 0.00033 | 1.38219 ± 0.00033 | 1.3778 ± 0.00033

OCCc1ccccc1 [2-phenylethanol] + OCc1ccccc1
refractive index
Details | 298.15 K | 308.15 K | 318.15 K
x2 = 0 | 1.53269 ± 0.00037 | 1.52852 ± 0.00037 | 1.52427 ± 0.00037
x2 = 0.05 | 1.53322 ± 0.00037 | 1.52911 ± 0.00037 | 1.52495 ± 0.00037
x2 = 0.1 | 1.53367 ± 0.00036 | 1.52961 ± 0.00036 | 1.52549 ± 0.00036
x2 = 0.15 | 1.5341 ± 0.00036 | 1.53006 ± 0.00036 | 1.52594 ± 0.00036
x2 = 0.2 | 1.53454 ± 0.00036 | 1.5305 ± 0.00036 | 1.52636 ± 0.00036
x2 = 0.25 | 1.53495 ± 0.00036 | 1.53089 ± 0.00036 | 1.52674 ± 0.00036
x2 = 0.3 | 1.53532 ± 0.00035 | 1.53125 ± 0.00035 | 1.5271 ± 0.00035
x2 = 0.35 | 1.53568 ± 0.00035 | 1.53159 ± 0.00035 | 1.52745 ± 0.00035
x2 = 0.4 | 1.53601 ± 0.00035 | 1.53193 ± 0.00035 | 1.52777 ± 0.00035
x2 = 0.45 | 1.53633 ± 0.00035 | 1.53225 ± 0.00035 | 1.52809 ± 0.00035
x2 = 0.5 | 1.53663 ± 0.00034 | 1.53255 ± 0.00034 | 1.52839 ± 0.00034
x2 = 0.55 | 1.53689 ± 0.00034 | 1.53281 ± 0.00034 | 1.52864 ± 0.00034
x2 = 0.6 | 1.53712 ± 0.00034 | 1.53304 ± 0.00034 | 1.52888 ± 0.00034
x2 = 0.65 | 1.53733 ± 0.00034 | 1.53325 ± 0.00034 | 1.5291 ± 0.00034
x2 = 0.7 | 1.53752 ± 0.00034 | 1.53344 ± 0.00034 | 1.52929 ± 0.00034
x2 = 0.75 | 1.53772 ± 0.00033 | 1.53362 ± 0.00033 | 1.52947 ± 0.00033
x2 = 0.8 | 1.53789 ± 0.00033 | 1.53377 ± 0.00033 | 1.52961 ± 0.00033
x2 = 0.85 | 1.53804 ± 0.00033 | 1.53391 ± 0.00033 | 1.52973 ± 0.00033
x2 = 0.9 | 1.53819 ± 0.00033 | 1.53403 ± 0.00033 | 1.52984 ± 0.00033
x2 = 0.95 | 1.53833 ± 0.00033 | 1.53414 ± 0.00033 | 1.52993 ± 0.00033
